One data set deals with Red blood cells. Description: Hemolytic activity (red blood cell lysis assay). The settings on record: for RBC SI: selectivity index vs M. tuberculosis MIC50; for RBC HC50: hemolysis, 24 h in PBS, unit not given, same scale as MIC50, i not defined.
The subject of data set [1] is Pseudomonas aeruginosa (ATCC 27853). Description: Antibacterial growth inhibition, P. aeruginosa. Type of data set: cell-based. As to conditions: ATCC27853, twofold serial dilution, max 100 μM, 18 h, read-out: P. aeruginosa Growth Inhibition Spectrum (MIC80).
Data set [2] has as its system Klebsiella pneumoniae (ATCC 700603, MDR). Description: microbe, parasite or virus in culture. Type of data set: cell-based. As to conditions: ATCC700603, 18 h, read-out: K. pneumoniae Growth Inhibition Spectrum (MIC80).
Data set [3] relates to Escherichia coli (ATCC 25922). Nature of the data set: Antibacterial growth inhibition, E. coli. Type of data set: cell-based. As to conditions: ATCC25922, twofold serial dilution, max 100 μM, 18 h, read-out: E. coli Growth Inhibition Spectrum (MIC80).
The test system of data set [4] is M. abscessus Bamboo (smooth morphotype). Nature of the data set: Growth inhibition dose response against M. abscessus. Type of data set: cell-based. As to conditions: Mycobacteroides abscessus, 72 h; 3 days, max 500 μM.
Data set [5] has as its system Staphylococcus aureus (ATCC 43300, MRSA). Nature of the data set: microbe, parasite or virus in culture. Type of data set: cell-based. The settings on record: 18 h, read-out: S. aureus Growth Inhibition Spectrum (MIC80).
For data set [6], the system named is Cryptococcus neoformans (ATCC 208821). Description: Antifungal growth inhibition, C. neoformans. As to conditions: ATCC208821, twofold serial dilution, max 100 μM, 24 h, resazurin, read-out: C. neoformans Growth Inhibition Spectrum (MIC80). Type of data set: cell-based. In general terms: The colour change of resazurin is a common sign of viable cells or microbes.

The test system of data set [7] is A549 (ATCC CCL-185) cells. Description: MTS cytotoxicity assay, A549. As to conditions: selectivity index vs M. tuberculosis MIC50.
Data set [8] in a line: MTS cytotoxicity assay, A549. The settings on record: human, A549 cells (ATCC CCL-185). In general terms: Formazan colour is commonly taken as a measure of viable cells.
Data set [9] relates to Acinetobacter baumannii (ATCC 19606). Description: Antibacterial growth inhibition, A. baumannii. The settings on record: ATCC19606, twofold serial dilution, max 100 μM, 18 h, read-out: A. baumannii Growth Inhibition Spectrum (MIC80). Type of data set: cell-based.
Data set [10] can be described thus: MTS cytotoxicity assay, HepG2. As to conditions: human, HepG2 cells (ATCC HB.8065).
Data set [11] relates to HepG2 (ATCC HB.8065) cells. Nature of the data set: MTS cytotoxicity assay, HepG2. The settings on record: selectivity index vs M. tuberculosis MIC50.
Another data set has as its system M. avium 11. Nature of the data set: Growth inhibition dose response against M. avium. Type of data set: cell-based. The settings on record: Mycobacterium avium, 11, 120 h; 5 days, max 500 μM.
Data set [12] has as its system Mycobacterium tuberculosis H37Rv (ATCC 27294). Description: Growth inhibition dose response against M. tuberculosis. Type of data set: cell-based. As to conditions: 7H9 broth, OD600, twofold serial dilution from 500 μM.
Data set [13] deals with M. bovis BCG (ATCC 35734). Nature of the data set: microbe, parasite or virus in culture. Type of data set: cell-based. As to conditions: for MIC50: Mycobacterium tuberculosis variant bovis BCG, 120 h, read-out: M. bovis BCG MIC50, 7H9 broth, 5 days, OD600.
Data set [14] deals with Candida albicans (ATCC 90028). Description: Antifungal growth inhibition, C. albicans. Type of data set: cell-based. The settings on record: ATCC90028, twofold serial dilution, max 100 μM, 24 h, read-out: C. albicans Growth Inhibition Spectrum (MIC80).

SMILES strings stand for the structures. Values after ≈ are worked out from the molar mass of the structure shown. A value given as a limit tells only on which side of the number the result lay.

Consider ten molecules from article PMC5013068, “Fragment-Based Whole Cell Screen Delivers Hits against M. tuberculosis and Non-tuberculous Mycobacteria” (Frontiers in Microbiology, 2016).

A word on the CC50: it is the concentration that lowers cell viability or growth by half. Read a low CC50 as harm at low concentration.

For `COn1c(-c2ccc(Cl)cc2)nc2ncccc21` [Fragment 7], the “RBC SI” value with Red blood cells is more than 23. Also, the MIC80 in data set [1], in [2], in [3], in data set [5], in [6] and in data set [9] was more than 100 µM in each case. For the same molecule, in data set [14], the MIC80 is more than 100 µM. The MIC50 was 150 µM (≈ 39 µg/mL) in data set [4], 145 µM (≈ 37.7 µg/mL) against M. avium 11, 104 µM (≈ 27 µg/mL) in data set [12] and 19 µM (≈ 4.93 µg/mL) in data set [13]. Moreover, in data set [7], the “A549 SI” value amounted to 17. For the same molecule, the values for the CC50 in data set [8] and in [10] were 1800 µM and 850 µM, respectively. Also, in [11], the “HepG2 SI” value was 8.

On to `N#CSC1C=CS(=O)(=O)C1` (centres unmarked) [Fragment 6], for which the “RBC HC50” value in the data set on Red blood cells amounted to 2200. In addition, the “RBC SI” value in the data set with Red blood cells worked out at 24. The MIC80 in data set [1] was more than 100 µM; in [2] it was more than 100 µM; in [3], more than 100 µM; in data set [5] it was 100 µM (≈ 17.5 µg/mL); in data set [6] it was more than 100 µM; in data set [9] it was 100 µM (≈ 17.5 µg/mL). For the same molecule, the MIC80 in data set [14] was found to be 100 µM (≈ 17.5 µg/mL). Also, the MIC50 in [4] is more than 500 µM; in the data set on M. avium 11, more than 500 µM; in data set [12], 92 µM (≈ 16.1 µg/mL); in data set [13], 53 µM (≈ 9.29 µg/mL). In addition, the “A549 SI” value in [7] came out at 11. The CC50 in [8] is 1000 µM; in data set [10], 75 µM.

Turning to `COc1cccc2sc(S(C)(=O)=O)nc12` [Fragment 3], the “RBC SI” value in the data set on Red blood cells is reported as more than 13. The MIC80 in [1], in data set [2], in [3], in data set [5], in [6] and in data set [9] was more than 100 µM each time. The MIC80 in data set [14] is more than 100 µM. For the same molecule, the MIC50 in data set [4] was more than 500 µM; against M. avium 11, more than 500 µM; in data set [12], 52 µM (≈ 12.7 µg/mL); in data set [13] it was 20 µM (≈ 4.87 µg/mL).

As for `Cc1nc(-c2c[nH]c3ccccc23)cs1` [Fragment 9], in the data set on Red blood cells, the “RBC SI” value was more than 18. Further, the MIC80 in data set [1], in [2], in data set [3], in data set [5], in [6] and in data set [9] was more than 100 µM each time. In [14], the MIC80 is more than 100 µM. In addition, the MIC50 in data set [4] was more than 500 µM; in the data set with M. avium 11, more than 500 µM; in data set [12], 126 µM (≈ 27 µg/mL); in data set [13] it was 39 µM (≈ 8.36 µg/mL). Further, the “A549 SI” value in data set [7] is recorded as more than 20. In addition, the CC50 in data set [8] was more than 2500 µM; in data set [10], 500 µM. In [11], the “HepG2 SI” value came to 4.

In the case of `Clc1ccc(Oc2cnns2)c2ncccc12` [Fragment 2], in the data set with Red blood cells, the “RBC HC50” value is 250. In addition, the MIC80 in data set [1], in data set [2], in data set [3], in data set [5], in data set [6] and in data set [9] was more than 100 µM each time. Moreover, the MIC80 in data set [14] was more than 100 µM. Also, the MIC50 in [4] is more than 500 µM; in the data set with M. avium 11, 130 µM (≈ 34.3 µg/mL); in data set [12], 43 µM (≈ 11.3 µg/mL); in data set [13], 56 µM (≈ 14.8 µg/mL). Moreover, the “A549 SI” value in [7] is listed as more than 7. The figures for the CC50 in data set [8] and in [10] were more than 2500 µM and 200 µM, respectively.

On to `Cc1c(C)n(CC(O)CNC2CCCC2)c2c(Cl)cccc12` (centres unmarked) [Fragment 4], for which the “RBC HC50” value in the data set on Red blood cells is 125. In addition, the MIC80 in data set [1], in [2], in [3], in data set [5], in [6] and in data set [9] was more than 100 µM in each case. Besides, the MIC80 in [14] is more than 100 µM. Also, the MIC50 in [4] came to 125 µM (≈ 40.1 µg/mL); against M. avium 11, 53 µM (≈ 17 µg/mL); in data set [12], 55 µM (≈ 17.6 µg/mL); in data set [13], 56 µM (≈ 18 µg/mL). The CC50 in data set [8] was found to be 60 µM; in data set [10], 45 µM.

For the molecule `CC1CC(N)=NN1c1ccc(Cl)cn1` (centres unmarked) [Fragment 8], the “RBC SI” value with Red blood cells is reported as more than 20. For the same molecule, the MIC80 in data set [1] was more than 100 µM; in data set [2], more than 100 µM; in data set [3] it was 100 µM (≈ 21.1 µg/mL); in [5], more than 100 µM; in data set [6] it was more than 100 µM; in [9], 100 µM (≈ 21.1 µg/mL). Moreover, the MIC80 in data set [14] was determined as 100 µM (≈ 21.1 µg/mL). In addition, the MIC50 was more than 500 µM in [4], 275 µM (≈ 57.9 µg/mL) in the data set with M. avium 11, 123 µM (≈ 25.9 µg/mL) in data set [12] and 13 µM (≈ 2.74 µg/mL) in [13]. The “A549 SI” value in [7] is on record as more than 20. Besides, the CC50 in data set [8] is more than 2500 µM; in data set [10] it was 900 µM. Also, the “HepG2 SI” value in data set [11] came to 7.

`O=C(c1cc2cc(F)ccc2s1)N1CCC1` [Fragment 5]: the “RBC SI” value in the data set on Red blood cells is more than 41. Also, the MIC80 in data set [1], in data set [2], in data set [3], in data set [5], in data set [6] and in data set [9] was more than 100 µM in each case. In addition, in data set [14], the MIC80 was more than 100 µM. The MIC50 in [4] was more than 500 µM; in the data set with M. avium 11, more than 500 µM; in data set [12] it was 60 µM (≈ 14.1 µg/mL); in data set [13], 68 µM (≈ 16 µg/mL). For the same molecule, in data set [7], the “A549 SI” value was more than 41. The CC50 in data set [8] and in [10] was more than 2500 µM in each case. The “HepG2 SI” value in [11] is recorded as more than 41.

As for `Cc1cc2nc(CN)[nH]c2cc1C` [Fragment 10], in the data set with Red blood cells, the “RBC HC50” value worked out at 2100. Also, the “RBC SI” value with Red blood cells was 16. Further, the MIC80 in data set [1], in data set [2], in [3], in data set [5], in data set [6] and in [9] was more than 100 µM throughout. Besides, the MIC80 in data set [14] was more than 100 µM. For the same molecule, the MIC50 was more than 500 µM in data set [4], more than 500 µM with M. avium 11, 131 µM (≈ 23 µg/mL) in data set [12] and 53 µM (≈ 9.29 µg/mL) in data set [13]. In addition, the “A549 SI” value in [7] is listed as 15. In addition, the CC50 in data set [8] was found to be 1900 µM; in [10], 900 µM. The “HepG2 SI” value in data set [11] stood at 7.

In the case of `CCNc1nc(C)nc2sc(CC)cc12` [Fragment 1], the “RBC SI” value in the data set with Red blood cells was more than 24. Also, the MIC80 in data set [1], in data set [2], in data set [3], in data set [5], in data set [6] and in data set [9] was more than 100 µM each time. Besides, in data set [14], the MIC80 was more than 100 µM. Besides, the MIC50 in data set [4] was more than 500 µM; against M. avium 11, more than 500 µM; in data set [12], 40 µM (≈ 8.85 µg/mL); in data set [13], 5 µM (≈ 1.11 µg/mL). The “A549 SI” value in [7] is reported as more than 24. Further, the CC50 in data set [8] and in [10] was more than 2500 µM in each case. Moreover, the “HepG2 SI” value in data set [11] was more than 24. Further, in data set [13] (7H9 broth, 5 days, OD600), the “M. bovis BCG MIC50” value was determined as 4.5 µM.
